# Reference: paper PMC3060404 (Chembiochem : a European journal of chemical biology, 2010)
# Assays:
# Assay type in all cases: biochemical
# PRMT1 = PRMT1 (Homo sapiens, UniProt Q99873); assay: PRMT1 IC50 assay; details: read-out: IC50 for PRMT1; 200 nM PRMT1, 15 µM 14C-methyl-SAM, 25 µM AcH4-21, 37 °C
# PRMT3 = PRMT3 IC50 assay; details: read-out: IC50 for PRMT3; 500 nM PRMT3, 15 µM 14C-methyl-SAM, 250 µM RGG, 37 °C
# CARM1/PRMT4 = CARM1/PRMT4 IC50 assay; details: read-out: IC50 for PRMT4; 150 nM CARM1/PRMT4, 15 µM 14C-methyl-SAM, 10 µM histone H3, 30 °C
# PRMT6 = PRMT6 (Homo sapiens, UniProt Q96LA8); assay: PRMT6 IC50 assay; details: read-out: IC50 for PRMT6; 500 nM PRMT6, 15 µM 14C-methyl-SAM, 30 µM histone H3, 37 °C
# Chain of PRMT6 (Q96LA8 whole entry, species assumed): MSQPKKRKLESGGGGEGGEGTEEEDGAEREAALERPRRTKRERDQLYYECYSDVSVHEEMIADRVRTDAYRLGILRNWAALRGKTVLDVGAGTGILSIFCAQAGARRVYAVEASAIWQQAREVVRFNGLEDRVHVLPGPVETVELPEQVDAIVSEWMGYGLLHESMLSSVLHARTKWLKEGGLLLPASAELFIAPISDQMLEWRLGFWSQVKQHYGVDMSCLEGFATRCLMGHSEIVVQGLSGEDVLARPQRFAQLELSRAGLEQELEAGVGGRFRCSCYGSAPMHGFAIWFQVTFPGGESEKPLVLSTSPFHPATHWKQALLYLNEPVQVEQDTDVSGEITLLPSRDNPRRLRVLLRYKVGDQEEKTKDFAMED
# Chain of PRMT1 (Q99873 1-353 isoform Q99873-3): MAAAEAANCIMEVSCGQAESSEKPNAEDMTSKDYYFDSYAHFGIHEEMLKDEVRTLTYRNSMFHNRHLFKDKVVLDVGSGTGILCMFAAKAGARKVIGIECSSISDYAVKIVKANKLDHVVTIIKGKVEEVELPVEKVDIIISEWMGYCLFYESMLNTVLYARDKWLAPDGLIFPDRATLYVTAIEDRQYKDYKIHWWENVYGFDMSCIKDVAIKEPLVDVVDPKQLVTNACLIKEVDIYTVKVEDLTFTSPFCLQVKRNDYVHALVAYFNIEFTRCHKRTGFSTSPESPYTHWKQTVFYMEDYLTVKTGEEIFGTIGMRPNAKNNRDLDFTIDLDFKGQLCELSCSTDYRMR
IC50 (PRMT1) [µM],IC50 (PRMT3) [µM],IC50 (CARM1/PRMT4) [µM],IC50 (PRMT6) [µM],SMILES
225 ± 10,> 500,> 500,> 500,NC(=O)[C@H](CCCN=C(N)CCl)NC(=O)c1ccccc1 [Cl-amidine]
> 500,> 500,> 500,> 500,NC(=O)[C@H](CCCN=C(N)CF)NC(=O)c1ccccc1 [F-amidine]
